These results are taken from patent publication US5589364A, “Recombinant production of biologically active peptides and proteins” (priority 1994, dated 1996).

Ends that are not written are not given here.

Experiment [1] has as its system Staphylococcus aureus ATCC 29213. Description: Microdilution broth antibacterial susceptibility assay (NCCLS M7-A2), MIC. The experiment is classed as cell-based. The conditions noted are these: lowest concentration completely inhibiting growth; MHB, 16-20 hours, 35-37 C; tested in duplicate. Here is the method:
(§1) Antibacterial susceptibility testing was performed using a microdilution broth assay according to the guidelines of the National Committee for Clinical Laboratory Standards (NCCLS) Document M7-A2 (NCCLS, 1990). For preparation of peptide stock solutions, the peptide powder as an acetate salt was weighed on an analytical balance and transferred to a polypropylene tube. Stock solutions were prepared at a concentration of 1.024 mg/mL (or, in the case of natural polyphemusin, 1.00 mg/mL) by dissolving the powder in autoclaved (121° C., 20 psi, 20 minutes) deionized water. The peptide solution was used immediately, stored for up to ten days at 4° C., or stored longterm at -70° C. in 1 mL aliquotes in polypropylene cryovials. Mueller-Hinton broth (MHB)(BBL® catalog number 11443) was used in microtiter plates for diluting peptide stock solutions and for diluting each bacterial inoculum. MHB 5 mL prepared tubes (BBL® catalog number 95834) were used to culture an overnight plate of bacteria to the logarithmic phase of growth for inoculating the microtiter plates.
(§2) The bacteria used in the antimicrobial susceptibility testing are the quality control reference strains Staphylococcus aureus ATCC 29213, Escherichia coli ATCC 25922, and Pseudomonas aeruginosa ATCC 27853. Inoculum for each reference strain was prepared by taking a sample of bacteria from a 16-20 hour plate culture and inoculating into 5 mL of MHB (BBL® catalog number 95834) to an absorbance reading of approximately 0.02 at 600 nm (A600) on a Beckman DU®-64 spectrophotometer. The culture was incubated at 35°-37° C. with shaking in a New Brunswick incubator shaker (Model G25) and the growth monitored spectrophotometrically until it reached A600 of approximately 0.6; this absorbance represented approximately 1×10^8 colony-forming units per milliliter (CFUs/mL).
(§3) The culture was then diluted to approximately 1×10^6 CFUs/mL in autoclaved MHB (BBL® catalog number 11443) to produce the parent inoculum. A sample of the parent inoculating culture was diluted in 3 mM phosphate buffer (pH 7.2) through a series of 1:10 dilutions and the 10^-4 and 10^-5 dilutions were plated, incubated overnight at 35°-37° C., and counted the next day to verify inoculum density. Microtiter plates (Corning manufacturer number 2585096) were prepared with the use of a Beckman Biomek® 1000 automated laboratory workstation in combination with manual techniques. The microtiter plate was filled with diluent broth using the Biomek® 1000 instrument. Peptide stock solution was manually added to the top drug well of the microtiter plate using a Rainin Pipetman®, Model P-200. The peptide was serially diluted in twofold dilutions using the Biomek® 1000 instrument. One hundred microliters of the standardized bacterial inoculum was added to every well of the microtiter plates (except the blanks) using an Eppendorf Repeater® Model 4780 pipet equipped with an Eppendorf 5 mL combitip (catalog number 22 26 130-4). All peptides were tested in duplicate. In addition to the test peptide, three standard peptides (Magainin 2, MSI-63, and MSI-98) and a non-treated growth control were included to validate the assay. The final concentrations of peptide solution in the microtiter wells ranged from 0.25 ug/mL to 256 ug/mL. The final concentration of bacteria in the microtiter wells was 1-5×10^5 CFUs/mL. The final solution volume in each well was 200 uL. The microtiter plates were incubated overnight (16-20 hours) at 35°-37° C. after preparation in a Precision mechanical convection oven incubator Model 30M.
(§4) This value was determined using the unaided eye. In addition, for a permanent record, the absorbance at 630 nm was read on a Dynatech MR5000 Microplate Reader, Version 2.7, and a printed record was generated on an Epson LX800 dot-matrix printer.
In general terms: In broth dilution the organism is exposed to a series of concentrations in liquid medium.

In experiment [2] the test system is Pseudomonas aeruginosa ATCC 27853. The description is as above. The experiment is classed as cell-based. The conditions noted are these: lowest concentration completely inhibiting growth; MHB, 16-20 hours, 35-37 C; tested in duplicate. Here is the method: as §1, §2, §3, §4
The test system of experiment [3] is Escherichia coli ATCC 25922. Described as above. The experiment is classed as cell-based. The conditions noted are these: lowest concentration completely inhibiting growth; MHB, 16-20 hours, 35-37 C; tested in duplicate. On the procedure:
as §1, §2, §3, §4

The subject of experiment [4] is E. coli ATCC strain 25922. The experiment in a line: Bacterial growth inhibition assay, aliquots spotted onto a bacterial lawn. The experiment is classed as cell-based, Escherichia coli. The conditions noted are these: purified recombinant peptide at 0.4 ug/mL; half-strength trypticase soy broth agar with 50 mM sodium fluoride. On the procedure: Small aliquots of recombinant MSI-556 and other HPLC fractions from the CNBr digest of MBP-MSI-556 fusion protein were spotted onto a lawn of E. coli ATCC strain 25922 grown on a half-strength trypticase soy broth agar plate containing 50 mM sodium fluoride.

Experiment [5] has as its system reference strains Staphylococcus aureus ATCC 29213, Escherichia coli ATCC 25922, and Pseudomonas aeruginosa ATCC 27853. The experiment in a line: Antimicrobial susceptibility assay as in Example 1, organism not specified per result. The experiment is classed as cell-based. On the procedure:
Antibacterial susceptibility testing was performed using a microdilution broth assay according to the guidelines of the National Committee for Clinical Laboratory Standards (NCCLS) Document M7-A2 (NCCLS, 1990). For preparation of peptide stock solutions, the peptide powder as an acetate salt was weighed on an analytical balance and transferred to a polypropylene tube. Stock solutions were prepared at a concentration of 1.024 mg/mL (or, in the case of natural polyphemusin, 1.00 mg/mL) by dissolving the powder in autoclaved (121° C., 20 psi, 20 minutes) deionized water. […]
as §2, with “(CFUs/mL). […]” for “(CFUs/mL).”
This value was determined using the unaided eye. […]

For GIGKFLKKAKKFGKAFVKILKK-NH2 [MSI-78], the “Minimum Inhibitory Concentration, Test Organism: Staph. aureus” value in experiment [1] lay in the range of 8 to 16 µg/mL. The “Minimum Inhibitory Concentration, Test Organism: Pseudo. aeruginosa” value in experiment [2] lay in the range of 4 to 8 µg/mL. Also, the “Minimum Inhibitory Concentration, Test Organism: E. coli” value in experiment [3] was 8 µg/mL.

Turning to “GIGKFLHSAKKFGKAFVGEIMNS [Native Magainin 2, reference compound]”, in experiment [1], the “Minimum Inhibitory Concentration, Test Organism: Staph. aureus” value is 256 µg/mL. For the same substance, the “Minimum Inhibitory Concentration, Test Organism: Pseudo. aeruginosa” value in experiment [2] is 256 µg/mL. In addition, the “Minimum Inhibitory Concentration, Test Organism: E. coli” value in experiment [3] was in the range of 64 to 128 µg/mL.

“NH2 --GIGKFLKKAKKFGKAGVKILKKG--OH [MSI-556]”: the “Bacterial lawn growth inhibition as judged visually” value in experiment [4] is on record as “significant antimicrobial activity”. Moreover, the “Spectrum of antibacterial activity (summary of Table I)” value in experiment [5] (unamidated peptides, conclusion from MIC values) is “broadly active against both gram-negative and gram-positive human pathogenic bacteria”. For the same substance, in experiment [1], the “Minimum Inhibitory Concentration, Test Organism: Staph. aureus” value was 16 µg/mL. Also, in experiment [2], the “Minimum Inhibitory Concentration, Test Organism: Pseudo. aeruginosa” value worked out at 4 µg/mL. In experiment [3], the “Minimum Inhibitory Concentration, Test Organism: E. coli” value is 4 to 16 µg/mL.

As for “NH2 --RRWCFRVCYRGFCYRKCRG--OH (H-RRWCFRVCYRGFCYRKCRG-OH; cysteine pairing not given here) [Lim1]”, the “Bioactivity in antimicrobial susceptibility assay” value in experiment [5] (HPLC-purified recombinant peptide, without reformation of the two disulfide bridges) is given as “bioactive”.
